What all share (format): cell-based
For assay [1], the system named is Oocyte. Kind of assay: Inhibition of human alpha2/beta2 nAChR expressed in Xenopus laevis oocytes at 10 uM.
For assay [2], the target named is Neuronal acetylcholine receptor; alpha2/beta4 (Homo sapiens) (UniProt P30926+Q15822). Kind of assay: Inhibition of human alpha2/beta4 nAChR expressed in Xenopus laevis oocytes at 10 uM. Conditions: Oocyte.
The target of assay [3] is Neuronal acetylcholine receptor; alpha3/beta4 (Homo sapiens) (UniProt P30926+P32297). Kind of assay: Inhibition of human alpha3/beta4 nAChR expressed in Xenopus laevis oocytes at 10 uM. As to conditions: Oocyte.
In assay [4] the target is Neuronal acetylcholine receptor; alpha3/beta2 (Homo sapiens) (UniProt P17787+P32297). Kind of assay: Inhibition of human alpha3/beta2 nAChR expressed in Xenopus laevis oocytes at 10 uM. As to conditions: Oocyte.
Assay [5] deals with Neuronal acetylcholine receptor; alpha4/beta4 (Homo sapiens) (UniProt P30926+P43681). Kind of assay: Inhibition of human alpha4/beta4 nAChR expressed in Xenopus laevis oocytes at 10 uM. Conditions: Oocyte.
Assay [6] concerns the target Neuronal acetylcholine receptor; alpha4/beta2 (Homo sapiens) (UniProt P17787+P43681). Kind of assay: Inhibition of human alpha4/beta2 nAChR expressed in Xenopus laevis oocytes at 10 uM. As to conditions: Oocyte.
Assay [7] addresses Nicotinic acetylcholine receptor alpha6/alpha3/beta4 (Homo sapiens) (UniProt P30926+P32297+Q15825). Kind of assay: Inhibition of human alpha6/alpha3/beta4 nAChR expressed in Xenopus laevis oocytes at 10 uM. As to conditions: Oocyte.
Assay [8] concerns Oocyte. Kind of assay: Inhibition of human alpha6/alpha3/beta2/beta3 nAChR expressed in Xenopus laevis oocytes at 10 uM.
Assay [9] addresses Neuronal acetylcholine receptor; alpha9/alpha10 (Homo sapiens) (UniProt Q9UGM1+Q9GZZ6). Kind of assay: Inhibition of human alpha9/alpha10 nAChR expressed in Xenopus laevis oocytes at 10 uM. As to conditions: Oocyte.
Assay [10] has as its target Neuronal acetylcholine receptor subunit alpha-7 (Homo sapiens) (UniProt P36544). Kind of assay: Inhibition of human alpha7 nAChR expressed in Xenopus laevis oocytes at 10 uM. As to conditions: Oocyte.
In assay [11] the target is Neuronal acetylcholine receptor subunit alpha-7 (Rattus norvegicus) (UniProt Q05941). Kind of assay: Inhibition of rat alpha7 nAChR expressed in Xenopus laevis oocytes assessed as inhibition of acetylcholine-induced current at 100 nM preincubated with compound for 1 hr followed by compound washout and measured for 20 mins by two electrode voltage-clamp assay. Conditions: Oocyte. In general terms: Two-electrode voltage clamp holds a large cell at a set potential and records current.

Assay [12] has the same target. Kind of assay: Inhibition of rat alpha7 nAChR expressed in Xenopus laevis oocytes assessed as inhibition of acetylcholine-induced current at 10 uM by two electrode voltage-clamp assay. Conditions: Oocyte.
For assay [13], the target named is Neuronal acetylcholine receptor; alpha3/beta2 (Rattus norvegicus) (UniProt P04757+P12390). Kind of assay: Inhibition of rat alpha3/beta2 nAChR expressed in Xenopus laevis oocytes assessed as inhibition of acetylcholine-induced current at 10 uM by two electrode voltage-clamp assay. Conditions: Oocyte.
Assay [14] deals with Oocyte. Kind of assay: Inhibition of rat alpha6/alpha3/beta2/beta3 nAChR expressed in Xenopus laevis oocytes assessed as inhibition of acetylcholine-induced current at 10 uM by two electrode voltage-clamp assay.
The target of assay [15] is Neuronal acetylcholine receptor; alpha3/beta4 (Rattus norvegicus) (UniProt P04757+P12392). Kind of assay: Inhibition of rat alpha3/beta4 nAChR expressed in Xenopus laevis oocytes assessed as inhibition of acetylcholine-induced current at 10 uM by two electrode voltage-clamp assay. As to conditions: Oocyte.
The target of assay [16] is Nicotinic acetylcholine receptor alpha6/alpha3/beta4 (Rattus norvegicus) (UniProt P04757+P12392+P43143). Kind of assay: Inhibition of rat alpha6/alpha3/beta4 nAChR expressed in Xenopus laevis oocytes assessed as inhibition of acetylcholine-induced current at 10 uM by two electrode voltage-clamp assay. As to conditions: Oocyte.
The target in assay [17] is Neuronal acetylcholine receptor; alpha2/beta2 (Rattus norvegicus) (UniProt P12389+P12390). Kind of assay: Inhibition of rat alpha2/beta2 nAChR expressed in Xenopus laevis oocytes assessed as inhibition of acetylcholine-induced current at 10 uM by two electrode voltage-clamp assay. As to conditions: Oocyte.
Assay [18] has as its system Oocyte. Kind of assay: Inhibition of rat alpha2/beta4 nAChR expressed in Xenopus laevis oocytes assessed as inhibition of acetylcholine-induced current at 10 uM by two electrode voltage-clamp assay.
In assay [19] the target is T1, Neuronal acetylcholine receptor; alpha4/beta2 (Rattus norvegicus) (UniProt P09483+P12390). Kind of assay: Inhibition of rat alpha4/beta2 nAChR expressed in Xenopus laevis oocytes assessed as inhibition of acetylcholine-induced current at 10 uM by two electrode voltage-clamp assay. Conditions: Oocyte.
The target in assay [20] is T1, Neuronal acetylcholine receptor; alpha4/beta2 (Rattus norvegicus). Kind of assay: Inhibition of rat alpha4/beta4 nAChR expressed in Xenopus laevis oocytes assessed as inhibition of acetylcholine-induced current at 10 uM by two electrode voltage-clamp assay. As to conditions: Oocyte.
In assay [21] the target is Nicotinic acetylcholine receptor alpha9/alpha10 (Rattus norvegicus) (UniProt P43144+Q9JLB5). Kind of assay: Inhibition of rat alpha9/alpha10 nAChR expressed in Xenopus laevis oocytes assessed as inhibition of acetylcholine-induced current at 10 uM by two electrode voltage-clamp assay. As to conditions: Oocyte.
The subject of assay [22] is Oocyte. Kind of assay: Inhibition of mouse alpha1/beta1/delta/epsilon nAChR expressed in Xenopus laevis oocytes assessed as inhibition of acetylcholine-induced current at 10 uM by two electrode voltage-clamp assay.
A short description of assay [23]: Inhibition of rat alpha6/alpha3/beta2/beta3 nAChR expressed in Xenopus laevis oocytes assessed as inhibition of acetylcholine-induced current by two electrode voltage-clamp assay. As to conditions: Oocyte.
Assay [24] in a line: Inhibition of rat alpha2/beta4 nAChR expressed in Xenopus laevis oocytes assessed as inhibition of acetylcholine-induced current by two electrode voltage-clamp assay. As to conditions: Oocyte.
Assay [25] can be described thus: Inhibition of mouse alpha1/beta1/delta/epsilon nAChR expressed in Xenopus laevis oocytes assessed as inhibition of acetylcholine-induced current by two electrode voltage-clamp assay. Conditions: Oocyte.

The source made the active and inactive calls. The rule behind the calls is not given here. Where a SMILES comes first, the peptide text is derived from it. Bridges are numbered along the chain shown (N, C = ends). [ ]: non-standard residue; d: D form. ξ: configuration not given here. ξD = NC(CC(=O)O)C(=O)O

Neuronal acetylcholine receptor subunit alpha-7 (Rattus norvegicus), sequence (Q05941 whole entry): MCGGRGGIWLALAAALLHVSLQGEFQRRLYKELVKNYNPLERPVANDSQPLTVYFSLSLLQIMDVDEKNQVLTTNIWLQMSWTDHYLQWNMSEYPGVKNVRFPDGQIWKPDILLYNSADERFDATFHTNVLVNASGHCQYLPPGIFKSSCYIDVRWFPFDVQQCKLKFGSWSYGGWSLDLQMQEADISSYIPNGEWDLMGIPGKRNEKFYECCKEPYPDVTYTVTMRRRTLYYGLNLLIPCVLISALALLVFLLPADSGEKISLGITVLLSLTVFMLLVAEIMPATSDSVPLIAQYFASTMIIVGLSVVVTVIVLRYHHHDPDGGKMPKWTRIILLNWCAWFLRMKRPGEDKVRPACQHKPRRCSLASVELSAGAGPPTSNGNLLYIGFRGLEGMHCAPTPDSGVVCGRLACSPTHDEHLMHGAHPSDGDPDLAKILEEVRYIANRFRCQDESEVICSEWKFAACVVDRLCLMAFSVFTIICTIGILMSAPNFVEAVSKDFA
Neuronal acetylcholine receptor subunit alpha-7 (Homo sapiens), sequence (P36544 whole entry): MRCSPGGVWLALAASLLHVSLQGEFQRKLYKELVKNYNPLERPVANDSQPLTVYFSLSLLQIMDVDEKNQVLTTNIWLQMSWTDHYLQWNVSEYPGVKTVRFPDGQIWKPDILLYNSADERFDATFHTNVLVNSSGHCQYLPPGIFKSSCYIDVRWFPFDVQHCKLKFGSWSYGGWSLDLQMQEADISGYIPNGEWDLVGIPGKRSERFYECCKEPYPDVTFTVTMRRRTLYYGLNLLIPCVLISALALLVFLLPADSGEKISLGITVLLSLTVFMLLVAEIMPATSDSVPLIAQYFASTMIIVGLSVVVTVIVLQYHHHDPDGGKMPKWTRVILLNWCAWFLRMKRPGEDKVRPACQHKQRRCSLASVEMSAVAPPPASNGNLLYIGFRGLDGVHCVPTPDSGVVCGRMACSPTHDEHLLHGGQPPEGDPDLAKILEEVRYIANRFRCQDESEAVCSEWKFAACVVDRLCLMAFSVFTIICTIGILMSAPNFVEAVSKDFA

In the case of `CC[C@H](C)[C@@H]1NC(=O)[C@H](CC(=O)O)NC(=O)[C@@H]2CCCN2C(=O)[C@H](CC(N)=O)NC(=O)[C@H](CCC(N)=O)NC(=O)[C@H](CC(C)C)NC(=O)[C@H]([C@@H](C)CC)NC(=O)[C@@H]2CSSC[C@H](NC(=O)[C@@H](N)CC(=O)O)C(=O)N[C@@H](CSSC[C@@H](C(N)=O)NC1=O)C(=O)N[C@@H](CO)C(=O)N[C@@H](CCC(=O)O)C(=O)N1CCC[C@H]1C(=O)N1CCC[C@H]1C(=O)N2` (H-DCCSEPPCILQNPDIC-NH2; disulfide 2-8, 3-16), the inhibition result in assay [1], in assay [2], in assay [3], in assay [4], in assay [5] and in assay [6] was “inactive” each time. In addition, the inhibition result in assay [7], in [8], in assay [9], in [10], in [11] and in [12] was “inactive” each time. In addition, the inhibition result in [13], in [14], in [15], in [16], in assay [17] and in assay [18] was “inactive” in each case. In addition, the inhibition entry in assay [19], in assay [20], in assay [21] and in [22] was “inactive” in each case.
Consider `CC[C@H](C)[C@@H]1NC(=O)[C@H](CC(=O)O)NC(=O)[C@@H]2CCCN2C(=O)[C@H](CC(N)=O)NC(=O)[C@H](CCC(N)=O)NC(=O)[C@H](CC(C)C)NC(=O)[C@H]([C@@H](C)CC)NC(=O)[C@@H]2CSSC[C@H](NC(=O)C(N)CC(=O)O)C(=O)N[C@@H](CSSC[C@@H](C(N)=O)NC1=O)C(=O)N[C@@H](CO)C(=O)N[C@@H](C)C(=O)N1CCC[C@H]1C(=O)N1CCC[C@H]1C(=O)N2` (stereo not given in full) (H-[ξD]CCSAPPCILQNPDIC-NH2; disulfide 2-8, 3-16), for which the 50% inhibitory concentration (IC50) in assay [23] is 0.112 µM; in assay [24], more than 10 µM; in assay [25] it was more than 10 µM.

The term IC50 denotes the point on the concentration scale where inhibition reaches its midpoint.
